Results on seven molecules are retold here after ChEMBL document CHEMBL3098103, “High-throughput docking for the identification of new influenza A virus polymerase inhibitors targeting the PA-PB1 protein-protein interaction” (Bioorg Med Chem Lett, 2014).

The nature of series [1]: Inhibition of Influenza A virus H5N1 C-terminal PA interaction to N-terminal PB1 (1 to 25) expressed in human 293T cells by ELISA. In kind it is cell-based. (In general: An ELISA detects its analyte on a solid surface through an enzyme-linked reagent.)
Series [2] can be described thus: Cytotoxicity against MDCK cells. In kind it is cell-based, Canis lupus familiaris. The settings on record: dog.

The structures appear in SMILES notation.

One may read the IC50 as the concentration at which inhibition is half-maximal. The low end stands for greater potency in that assay, the high end for weaker potency in that assay. Usually CC50 stands for the concentration at which the toxic effect on the cells reaches its halfway point. Low readings indicate greater toxicity to the cells, high ones lower toxicity to the cells. For the molecule `Cc1ccc(-c2cc(-c3ccccc3)nc(SCC(=O)Nc3cccc(C)c3)c2C#N)cc1`, the concentration for half-maximal inhibition (IC50) in series [1] came out at 80 µM. Besides, it took 100 µM to reach half-maximal cytotoxicity in series [2] (CC50).

In the case of `COc1ccc(-c2cc(-c3ccccc3)nc(SCC(=O)Nc3ccccc3)c2C#N)cc1OC`, the IC50 in series [1] was found to be 125 µM. The molecule also displayed a 50% cytotoxic concentration (CC50) in series [2] of 100 µM.

The molecule `Cc1ccc(-c2cc(-c3ccccc3)nc(S[C@H](C)C(=O)Nc3cccc(Cl)c3)c2C#N)cc1` gave an IC50 in series [1] of 125 µM. This molecule yielded a CC50 in series [2] of 100 µM.

Molecule `Cc1ccc(-c2cc(-c3ccccc3)nc(SCC(=O)Nc3cccc(Cl)c3)c2C#N)cc1` returned an IC50 in series [1] of 180 µM. The same molecule came in with a CC50 in series [2] of 100 µM.

As to `Cc1ccc(-c2cc(-c3ccccc3)nc(S[C@@H](C)C(=O)Nc3ccc(C)c(C)c3)c2C#N)cc1`, the IC50 in series [1] was determined as 180 µM. Besides, the CC50 in series [2] was 100 µM.

Molecule `N#Cc1c(-c2cccc(Br)c2)cc(-c2ccccc2)nc1SCC(=O)Nc1ccc(Br)cc1` yielded an IC50 in series [1] of 35 µM. For the same molecule, half-maximal cytotoxicity in series [2] (CC50) was put at 100 µM.

`CCOC(=O)c1ccc(NC(=O)CSc2nc(-c3ccccc3)cc(-c3ccc(OCc4ccccc4)c(OCC)c3)c2C#N)cc1` had a 50% inhibitory concentration (IC50) in series [1] of 30 µM. This molecule also showed a CC50 in series [2] of 100 µM.
